Test system: patients with metastatic castration-sensitive prostate cancer (mCSPC)

SMILES: CNC(=O)c1ccc(N2C(=S)N(c3cnc(C#N)c(C(F)(F)F)c3)C(=O)C23CCC3)cc1F [Apalutamide, 4-[7-(6-cyano-5-trifluoromethylpyridin-3-yl)-8-oxo-6-thioxo-5,7-diazaspiro[3.4]oct-5-yl]-2-fluoro-N-methylbenzamide]
- AE leading to dose interruption: Hyponatremia (All Grades): 1 (0.2) no. (%)
- AE leading to dose interruption: Infections (All Grades): 6 (1.1) no. (%)
- AE leading to dose interruption: Influenza-like illness (All Grades): 1 (0.2) no. (%)
- AE leading to dose interruption: Insomnia (All Grades): 3 (0.6) no. (%)
- AE leading to dose interruption: Ischemic cardiac events (All Grades): 1 (0.2) no. (%)
- AE leading to dose interruption: Large intestinal ulcer perforation (All Grades): 1 (0.2) no. (%)
- AE leading to dose interruption: Mental status changes (All Grades): 1 (0.2) no. (%)
- AE leading to dose interruption: Muscular weakness (All Grades): 1 (0.2) no. (%)
- AE leading to dose interruption: Musculoskeletal stiffness (All Grades): 0 no. (%)
- AE leading to dose interruption: Nausea (All Grades): 1 (0.2) no. (%)
- AE leading to dose interruption: Neutropenia (All Grades): 2 (0.4) no. (%)
- AE leading to dose interruption: New cancer neoplasm (All Grades): 3 (0.6) no. (%)
- AE leading to dose interruption: Osteoarthritis (All Grades): 0 no. (%)
- AE leading to dose interruption: Osteoporosis (All Grades): 1 (0.2) no. (%)
- AE leading to dose interruption: Pain (grouped term) (All Grades): 9 (1.7) no. (%)
- AE leading to dose interruption: Pathological fracture (All Grades): 0 no. (%)
- AE leading to dose interruption: Peripheral edema (All Grades): 1 (0.2) no. (%)
- AE leading to dose interruption: Peripheral swelling (All Grades): 0 no. (%)
- AE leading to dose interruption: Proctalgia (All Grades): 1 (0.2) no. (%)
- AE leading to dose interruption: Pyrexia (All Grades): 3 (0.6) no. (%)
- AE leading to dose interruption: Rash (grouped term) (All Grades): 44 (8.4) no. (%)
- AE leading to dose interruption: Renal injury (All Grades): 0 no. (%)
- AE leading to dose interruption: Rheumatoid arthritis (All Grades): 1 (0.2) no. (%)
- AE leading to dose interruption: Seizure (All Grades): 1 (0.2) no. (%)
- AE leading to dose interruption: Spinal cord compression (All Grades): 1 (0.2) no. (%)
- AE leading to dose interruption: Stomatitis (All Grades): 1 (0.2) no. (%)
- AE leading to dose interruption: Subarachnoid hematoma (All Grades): 1 (0.2) no. (%)
- AE leading to dose interruption: Subarachnoid hemorrhage (All Grades): 1 (0.2) no. (%)
- AE leading to dose interruption: Subdural hemorrhage (All Grades): 0 no. (%)
- AE leading to dose interruption: Syncope (All Grades): 1 (0.2) no. (%)
- AE leading to dose interruption: Thrombocytopenia (All Grades): 1 (0.2) no. (%)
- AE leading to dose interruption: Tongue ulceration (All Grades): 1 (0.2) no. (%)
- AE leading to dose interruption: Urethral stenosis (All Grades): 0 no. (%)
- AE leading to dose interruption: Urinary incontinence (All Grades): 1 (0.2) no. (%)
- AE leading to dose interruption: Urinary retention (All Grades): 2 (0.4) no. (%)
- AE leading to dose interruption: Urinary tract obstruction (All Grades): 1 (0.2) no. (%)
- AE leading to dose interruption: Vertigo (All Grades): 1 (0.2) no. (%)
- AE leading to dose interruption: Vomiting (All Grades): 3 (0.6) no. (%)
- AE leading to dose interruption: Weight increased (All Grades): 0 no. (%)
- AE leading to dose reduction: Aspartate aminotransferase or alanine aminotransferase increased (All Grades): 0 no. (%)
- AE leading to dose reduction: Asthenia (All Grades): 0 no. (%)
- AE leading to dose reduction: Cognitive disorder (All Grades): 1 (0.2) no. (%)
- AE leading to dose reduction: Dehydration (All Grades): 1 (0.2) no. (%)
- AE leading to dose reduction: Fatigue (All Grades): 2 (0.4) no. (%)
- AE leading to dose reduction: General physical health deterioration (All Grades): 1 (0.2) no. (%)
- AE leading to dose reduction: Headache (All Grades): 1 (0.2) no. (%)
- AE leading to dose reduction: Hot flush (All Grades): 1 (0.2) no. (%)
- AE leading to dose reduction: Hypertension (All Grades): 1 (0.2) no. (%)
- AE leading to dose reduction: Lethargy (All Grades): 0 no. (%)
- AE leading to dose reduction: Neutropenia (All Grades): 2 (0.4) no. (%)
- AE leading to dose reduction: Pain (All Grades): 1 (0.2) no. (%)
- AE leading to dose reduction: Performance status decreased (All Grades): 0 no. (%)
- AE leading to dose reduction: Rash (grouped term) (All Grades): 28 (5.3) no. (%)
- AE leading to dose reduction: Vertigo (All Grades): 1 (0.2) no. (%)
- AE leading to dose reduction: Weight decreased (All Grades): 1 (0.2) no. (%)
- AE of special interest: Fall (All Grades): 39 (7.4) no. (%)
- AE of special interest: Fracture (grouped term) (All Grades): 33 (6.3) no. (%)
- AE of special interest: Hypothyroidism (grouped term) (All Grades): 34 (6.5) no. (%)
- AE of special interest: Rash (grouped term) (All Grades): 142 (27.1) no. (%)
- AE of special interest: Seizure (grouped term) (All Grades): 3 (0.6) no. (%)
- Patients with treatment-emergent adverse events leading to discontinuation (All Grades): 42 (8.0) no. (%)
- Patients with treatment-emergent adverse events leading to dose reduction (All Grades): 37 (7.1) no. (%)
- Patients with treatment-emergent events leading to dose interruption (All Grades): 104 (19.8) no. (%)
- TEAE: Anemia (All Grades): 48 (9.2) no. (%)
- TEAE: Arthralgia (All Grades): 91 (17.4) no. (%)
- TEAE: Asthenia (All Grades): 37 (7.1) no. (%)
- TEAE: Back pain (All Grades): 91 (17.4) no. (%)
- TEAE: Blood alkaline phosphatase increased (All Grades): 16 (3.1) no. (%)
- TEAE: Bone pain (All Grades): 34 (6.5) no. (%)
- TEAE: Constipation (All Grades): 47 (9.0) no. (%)
- TEAE: Fatigue (All Grades): 103 (19.7) no. (%)
- TEAE: Hot flush (All Grades): 119 (22.7) no. (%)
- TEAE: Hypertension (All Grades): 93 (17.7) no. (%)
- TEAE: Pain in extremity (All Grades): 64 (12.2) no. (%)
- TEAE: Pruritus (All Grades): 56 (10.7) no. (%)
- TEAE: Rash generalized (All Grades): 34 (6.5) no. (%)
- TEAE: Urinary retention (All Grades): 13 (2.5) no. (%)
- TEAE: Weight increased (All Grades): 54 (10.3) no. (%)
- AE leading to discontinuation: Alanine aminotransferase increased (Grade ≥3): 0 no. (%)
- AE leading to discontinuation: Anxiety (Grade ≥3): 0 no. (%)
- AE leading to discontinuation: Atrial fibrillation (Grade ≥3): 1 (0.2) no. (%)
- AE leading to discontinuation: Cardiac failure (Grade ≥3): 0 no. (%)
- AE leading to discontinuation: Cardio-respiratory arrest (Grade ≥3): 1 (0.2) no. (%)
- AE leading to discontinuation: Cardiogenic shock (Grade ≥3): 1 (0.2) no. (%)
- AE leading to discontinuation: Cerebrovascular disorder (Grade ≥3): 1 (0.2) no. (%)
- AE leading to discontinuation: Cognitive disorder (Grade ≥3): 0 no. (%)
- AE leading to discontinuation: Dehydration (Grade ≥3): 0 no. (%)
- AE leading to discontinuation: Dyspnea (Grade ≥3): 0 no. (%)
- AE leading to discontinuation: Euphoric mood (Grade ≥3): 0 no. (%)
- AE leading to discontinuation: Fatigue (Grade ≥3): 1 (0.2) no. (%)
- AE leading to discontinuation: Hot flush (Grade ≥3): 0 no. (%)
- AE leading to discontinuation: Hypothermia (Grade ≥3): 0 no. (%)
- AE leading to discontinuation: Infections (Grade ≥3): 1 (0.2) no. (%)
- AE leading to discontinuation: Intracranial hemorrhage (Grade ≥3): 0 no. (%)
- AE leading to discontinuation: Ischemic cardiac events (Grade ≥3): 2 (0.4) no. (%)
- AE leading to discontinuation: Large intestinal ulcer perforation (Grade ≥3): 1 (0.2) no. (%)
